Measurements from publication PMC12866797, “Targeting DESI2 as a Novel Therapeutic Strategy for JAK2‐Mutant Leukemias” (Advanced Science, 2025).
pIC50: −log10 of the molar value.

Key:
[1] = biological target: T1, DESI2 (Homo sapiens, UniProt Q9BSY9); test: Ub-AMC fluorescence assay, initial rate; assay type: biochemical
T1 construct: residues 1-194, pET28a vector, E. coli BL21 (DE3), Ni-NTA purified

[2] = biological target: JOSD1 (Homo sapiens, UniProt Q15040); test: Ub-Rho fluorescence assay; assay type: biochemical
[3] = biological target: T1, DESI2; test: thermal shift assay; assay type: binding; conditions: 100 µM compound

T1 sequence (Q9BSY9 whole entry, the tested form may be a part): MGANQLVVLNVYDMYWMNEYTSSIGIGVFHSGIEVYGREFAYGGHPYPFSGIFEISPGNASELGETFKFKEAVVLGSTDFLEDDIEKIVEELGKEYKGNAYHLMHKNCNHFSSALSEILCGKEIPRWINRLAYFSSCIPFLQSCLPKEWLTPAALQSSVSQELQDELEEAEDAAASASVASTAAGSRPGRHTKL

pIC50 [1]: 7.33 | pIC50 [2]: < 5.00 | dTm [3]: 3.5 °C
SMILES: N#CN1CC[C@H](C(=O)Nc2nc3cc(-c4ccc5c(c4)OCO5)ccc3s2)C1 [WWQ-03-012]
